{"source": "ChEMBL document CHEMBL3351309", "about": "“DNA binders in clinical trials and chemotherapy” (2014)", "test_system": "U2OS", "test": "Growth inhibition of human U2OS cells after 3 days in presence of werner syndrome helicase inhibitor NSC 19630", "format": "functional"}
{"smiles": "Cc1oc2nc1-c1nc(co1)-c1nc(co1)-c1nc(co1)-c1nc(co1)-c1nc(co1)C1=NC(CS1)c1nc-2c(C)o1", "note": "(stereo unspecified) [TELOMESTATIN]", "values": [{"measurement": "growth inhibition (GI)", "value": 70, "unit": "%"}]}
